{
  "source": "patent US6034120A",
  "about": "“Insect antifeedant for agriculture” (Morita Kaguku Kogyo Co., Ltd., priority 1997, dated 2000)",
  "key": {"[1]": {"test_system": "Spodoptera litura FABRICIUS", "assay": "antifeeding effect by the leaf disk method (antifeedant index)", "type": "in vivo, Spodoptera litura FABRICIUS larvae, third or fourth instar", "parameters": "key to Antifeedant index (AFI): AFI = 100×T/(T+C); 50 = same as control, ≤30 = antifeeding", "settings": "for Antifeedant index (AFI): 30 or less = antifeeding activity", "protocol": "A test for an antifeeding effect on insects was conducted by the leaf disk method. After wiping off the surface of a leaf of Ipomoea batatas with acetone in order to remove extraneous matter on the leaf, a disk having a diameter of 2 cm was cut out with a cork borer, avoiding the veins of the leaf. An acetone solution containing the predetermined amount of samples was applied to the disk, which was sufficiently air-dried. As a control, the same amount of acetone solution was used, and applied to the leaf disk in the same manner as in the sample. Two pieces each of the sample and the control were placed crosswise in a petri dish, and 15 larvae of Spodoptera litura FABRICIUS were set in the petri dish to put on the lid. The Spodoptera litura FABRICIUS used was the third or fourth instar. This is because the younger the larvae, the greater the effect they receive due to allelochemical. The first or second instar larvae prefer to eat a tender portion of the leaf because they cannot eat hard veins or fiber of the leaf. On the other hand, the fifth or sixth instar larvae move the leafdisk because they are well-built. Further, the antifeeding effect due to allelochemical is lowered because they eat any portion of the leaf. Therefore, it is better not to use the fifth or sixth instar larvae.\nThe petri dish was allowed to stand in a thermostatic chamber at 25 to 27° C. under light. Two to 5 hours later, 4 pieces of the leaf were taken out to convert them into black and white pictures with a photocopier. Using a scanner, the disk area was digitized, and then the disk area was expressed numerically at the pixel unit on a Mackintosh computer using a free soft NIH image.\nThe method of calculating an antifeedant index (AFI) is as follows. First, a standard area of an intact leaf is calculated. The ratio of the area of the leaf consumed by the larvae to the standard area of the leaf was calculated.\nAntifeedant index=100×T/(T+C)\nT: Total percentage of treated disk consumed\nC: Total percentage of control disk consumed\nIf this index is 30 or less, the tested leaf has antifeeding activity. […] When the consumed area of the sample and that of the control is the same, the antifeedant index indicates 50.\nConcerning scabequinone, remirol, cyperaquinone and methylremirol, the AFI and FR were calculated according to the method for testing an antifeeding effect."}, "[2]": {"test_system": "Tyrophagus putrescentiae SCHRANK", "assay": "dry film method in test tube, repelling of Tyrophagus putrescentiae", "type": "in vivo", "settings": "1 mg, 25° C., 1 day", "protocol": "To 1 mg of cyperaquinone was added acetone and the resulting solution was charged in a test tube (a diameter of 1 cm). Thereafter, the solution was treated by the dry film method. (The method is as follows: a solution was charged at the bottom of a test tube. After applying the solution to the wall of the test tube, the solvent was removed to leave a sample on the wall of the test tube.) Fifty Tyrophagus putrescentiae SCHRANK were set in the test tube. After growing them at 25° C. for 1 day, the confirmation was conducted with a stereomicroscope."}, "[3]": {"test_system": "plants", "settings": "background statement; cited from earlier work"}, "[4]": {"test_system": "Plutella maculipennis CURTIS", "assay": "test for an insecticidal effect (contact application)", "type": "in vivo, Plutella maculipennis CURTIS larvae, third instar", "settings": "for LD50: acetone solution applied to third instar larvae, 24 hours, probit method; for insecticidal effect / LD50 comparison (in words): versus scabequinone", "protocol": "In order to test the insecticidal effect of remirol, methylremirol and scabequinone, acetone was added to each sample and the resulting acetone solution was applied to the third instar larvae of Plutella maculipennis CURTIS. Thereafter, Kaiwaredaikon (Raphanus sativus LINN, C.V. shijunichi) was fed to them as a feed and the number of survived larvae after 24 hours was counted. LD50 (lethal dose 50) was calculated by the probit method."}, "[5]": {"settings": "1 mg/leaf, 50 = no difference from control"}},
  "note": "“Also recorded” adds a separate entry of the source.",
  "data": [
    {"smiles": "C=C(C)C1Cc2c(cc(OC)c(C(C)=O)c2OC)O1", "note": "(racemic) [racemic methylremirol]", "values": [
      {"measurement": "Antifeedant index (AFI)", "setting": "[1]; [5]", "result": 44.3}
    ]},
    {"smiles": "C=C(C)C1Cc2c(OC)cc(OC)cc2O1", "note": "(stereo not drawn) [2-isopopenyl-4,6-methoxy-coumaran, 2-isopropenyl-4,6-methoxycoumaran]", "values": [
      {"measurement": "Antifeedant index (AFI)", "setting": "[1]; [5]", "result": 26.1}
    ]},
    {"smiles": "C=C(C)c1cc2c(o1)C(=O)c1occ(C)c1C2=O", "note": "[cyperaquinone]", "values": [
      {"measurement": "mortality (in words)", "setting": "[2]", "result": "Some of the Tyrophagus putrescentiae SCHRANK were dead"},
      {"measurement": "repelling effect (in words)", "setting": "[2]", "result": "had a repelling effect on Tyrophagus putrescentiae SCHRANK"},
      {"measurement": "FR (consumed ratio of treated leaves)", "setting": "[1]; 0.1 mg/leaf", "result": 16.18},
      {"measurement": "FR (consumed ratio of treated leaves)", "setting": "[1]; 0.25 mg/leaf", "result": 13.92},
      {"measurement": "Antifeedant index (AFI)", "setting": "[1]; 0.25 mg/leaf", "result": 26.03},
      {"measurement": "FR (consumed ratio of treated leaves)", "setting": "[1]; 1 mg/leaf", "result": 9.98},
      {"measurement": "Antifeedant index (AFI)", "setting": "[1]; [5]", "result": 20.98}
    ]},
    {"smiles": "O=C1C=CC(=O)c2c(O)cccc21", "note": "[juglone, reference compound]", "values": [
      {"measurement": "FR (consumed ratio of treated leaves)", "setting": "[1]; 0.1 mg/leaf", "result": 0},
      {"measurement": "Antifeedant index (AFI)", "setting": "[1]; 0.1 mg/leaf", "result": 0},
      {"measurement": "FR (consumed ratio of treated leaves)", "setting": "[1]; 0.25 mg/leaf", "result": 0},
      {"measurement": "Antifeedant index (AFI)", "setting": "[1]; 0.25 mg/leaf", "result": 0},
      {"measurement": "FR (consumed ratio of treated leaves)", "setting": "[1]; 1 mg/leaf", "result": 0},
      {"measurement": "Antifeedant index (AFI)", "setting": "[1]; [5]", "result": 0},
      {"measurement": "anti-breeding effect on the plants", "setting": "[3]", "result": "strong anti-breedingeffect on the plants"}
    ]},
    {"smiles": "C=C(C)C1Cc2c(cc(OC)c(C(C)=O)c2OC)O1", "note": "(stereo not drawn) [methylremirol]", "values": [
      {"measurement": "LD50", "setting": "[4]", "result": 1.0, "unit": "mg"},
      {"measurement": "insecticidal effect / LD50 comparison (in words)", "setting": "[4]", "result": "superior to scabequinone in the insecticidal effect"},
      {"measurement": "Antifeedant index (AFI)", "setting": "[1]; [5]", "result": 0}
    ]},
    {"smiles": "O=c1c(O)c(-c2ccc(O)c(O)c2)oc2cc(O)cc(O)c12", "note": "[quercetin, reference compound]", "values": [
      {"measurement": "FR (consumed ratio of treated leaves)", "setting": "[1]; 0.1 mg/leaf", "result": 15.96},
      {"measurement": "Antifeedant index (AFI)", "setting": "[1]; 0.1 mg/leaf", "result": 25.04},
      {"measurement": "FR (consumed ratio of treated leaves)", "setting": "[1]; 0.25 mg/leaf", "result": 13.07},
      {"measurement": "Antifeedant index (AFI)", "setting": "[1]; 0.25 mg/leaf", "result": 25.08},
      {"measurement": "FR (consumed ratio of treated leaves)", "setting": "[1]; 1 mg/leaf", "result": 0.66},
      {"measurement": "Antifeedant index (AFI)", "setting": "[1]; [5]", "result": 2.07}
    ]},
    {"smiles": "C=C(C)C1Cc2c(cc(OC)c(C(C)=O)c2O)O1", "note": "(stereo not drawn) [remirol]", "values": [
      {"measurement": "LD50", "setting": "[4]", "result": 0.125, "unit": "mg"},
      {"measurement": "insecticidal effect / LD50 comparison (in words)", "setting": "[4]", "result": "superior to scabequinone in the insecticidal effect"},
      {"measurement": "FR (consumed ratio of treated leaves)", "setting": "[1]; 0.1 mg/leaf", "result": 11.33},
      {"measurement": "FR (consumed ratio of treated leaves)", "setting": "[1]; 0.25 mg/leaf", "result": 10.31},
      {"measurement": "Antifeedant index (AFI)", "setting": "[1]; 0.25 mg/leaf", "result": 19.02},
      {"measurement": "FR (consumed ratio of treated leaves)", "setting": "[1]; 1 mg/leaf", "result": 3.84},
      {"measurement": "Antifeedant index (AFI)", "setting": "[1]; [5]", "result": 8.57}
    ]},
    {"smiles": "Cc1coc2c1C(=O)C1=C(OCC(C(C)C)C1)C2=O", "note": "(stereo not drawn) [scabequinone]", "values": [
      {"measurement": "LD50", "setting": "[4]", "result": 1.371, "unit": "mg"},
      {"measurement": "FR (consumed ratio of treated leaves)", "setting": "[1]; 0.1 mg/leaf", "result": 1.61},
      {"measurement": "Antifeedant index (AFI)", "setting": "[1]; 0.1 mg/leaf", "result": 4.22},
      {"measurement": "FR (consumed ratio of treated leaves)", "setting": "[1]; 0.25 mg/leaf", "result": 0.47},
      {"measurement": "Antifeedant index (AFI)", "setting": "[1]; 0.25 mg/leaf", "result": 2.16},
      {"measurement": "Antifeedant index (AFI)", "setting": "[1]; [5]", "result": 0},
      {"measurement": "antifeeding effect (in words)", "setting": "[1]; leaf disk method", "result": "did quite well in the antifeeding effect; also recorded: by far superior to another commercially available product quercetin"}
    ]}
  ]
}
